Experimental data taken from patent publication US10100096B2, “Tissue protective peptides and uses thereof” (Araim Pharmaceuticals, Inc., priority 2005, dated 2018).
“Also recorded” adds a separate entry of the source. No end group written: not given here.

What was measured:
[1] = test system: right sciatic nerve of rats; experiment: Sciatic nerve assay (in vivo sciatic nerve injury model); set-up: species or system rat; settings: Example 2, Table 1, FIG. 1, FIG. 2, comparison with carbamylated EPO
Procedure: The tissue protective peptides were tested for any tissue protective activity using a Sciatic Nerve Assay. Sprague-Dawley rats (250-300 grams) (six per group, including control) were anesthetized using isoflurane (Baxter NPC 10019-773-60) and a Table Top Laboratory Anesthesia System (flowmeter set to 2-3 liters/minute @55 psi) for at least 3 minutes. The rat was then placed on a homeothermic blanket to ensure that the core temperature of the rat was maintained at 35-37° C. during the operation. Core temperature was monitored via a rectal probe. The right sciatic nerve of the anesthetized rat was exposed at mid thigh through a quadriceps muscle dissection; a 2 cm incision with a 15 blade scalpel was made through the skin parallel and over the quadriceps muscle and the quadriceps muscle was cut to expose the sciatic nerve using a pair of dissecting scissors. The sciatic nerve was then freed from the surrounding membranes. A 2-0 braided silk thread (Ethicon, 685-G) was passed under the nerve and the ends of the suture passed through a guide which was maintained perpendicular to the nerve. The end of the suture was then tied to a non-elastic cord which was then draped around the pulley system (a NYL pulley bearing MTD ¼″ B (PO Number 04174-01) with stabilizer) and a 100 gram weight attached to the non-elastic cord was slowly released. The weight was allowed to hang for 1 minute before the silk suture was cut to release the weight.
A 289 pmol/kg dose of carbamylated erythropoietin, a 289 pmol/kg dose of one peptide from the series A-J (see Table 1), or PBS was then injected into the caudal vein using a ½ cc insulin syringe.
The muscle and surgical incision were then closed and 5 ml of Lactated Ringers solution was injected subcutaneously into the rat. The core temperature of the rat was maintained at 35-37° C. using a heat blanket during recovery.
Over the next four days the rear toe splaying of the rats was determined by placing the rat in an acrylic tube with a diameter of 30 cm on the scanning surface of a digital scanner. […] Three acceptable scans of each rat were taken. From the scans, the Toe Spread (the distance between the ball of the first toe and the ball of the fifth toe) and the Intermediate Toe Spread (the distance between the ball of the second toe and the ball of the fourth toe) were measured. The static sciatic index was then computed in accordance with S. Erbayraktar et al., 2003, Proc Natl Acad Sci USA 100, 6741-6746 (hereby incorporated by reference in its entirety) and statistical analysis performed.

[2] = test system: experimental autoimmune encephalomyelitis in mice; experiment: Murine EAE model; format: in vivo, mouse; settings: C57BL/6 mice; 4.4 μg/kg daily starting day 4 after immunization; p<0.01; FIG. 13
Procedure: Experimental autoimmune encephalomyelitis ([…]) was induced in C57BL/6 female mice (6-8 weeks of age) according to Savino et al., 2006, J Neuroimmunol 172:27-37, hereby incorporated by reference in its entirety. EAE was induced by subcutaneous immunization in the flanks with a total of 200 μg of MOG35-55 (Multiple Peptide Systems, San Diego, Calif., USA) in incomplete Freund's adjuvant (Sigma. St. Louis, Mo., USA) supplemented with 8 mg/ml of Mycobacterium tuberculosis (strain H37RA; Difco, Detroit, Mich., USA). Animals were housed in specific pathogen-free conditions, allowing access to food and water ad libitum. Mice received 500 ng of pertussin toxin (Sigma) i.v. at the time of immunization and 48 h later. Weight and clinical score were recorded daily (0=healthy, 1=flaccid tail, 2=ataxia, and/or hind-limbs paresis, or slow righting reflex, […] 3=paralysis of hind limb and/or paresis of forelimbs, 4=paraparesis of fore limb, 5=moribund or death). Food pellets and the drinking water were placed on Petri plates on the floor of the cage to enable sick mice to eat and drink. Peptide E (SEQ ID NO:31) was administered daily subcutaneously at a dose of 4.4 micrograms/kg-bw, starting on day 4 after immunization.

[3] = In vivo assessment of erythropoietic activity and neutralizing antibodies; set-up: species or system rat; settings: rats, 0.8 μg/kg s.c. 3 days/week over 130 days, FIG. 4; for increase in hemoglobin levels (hematocrit): EPO at equimolar dosage
Procedure: To evaluate the erythropoietic activity of tissue protective peptide F (SEQ ID NO:33) or peptide G (SEQ ID NO:40, as discussed supra a peptide constructed of the presenting residues of Helix B), the peptides were administered 0.8 μg/kg subcutaneously three time per week to male Sprague Dawley rats. The dosage schedule corresponded to the equivalent dose (on a molar basis) of EPO previously determined to be elicit maximum erythropoiesis. Hemoglobin concentration was determined periodically by use of an automated analyzer (Keska Corporation).

mouse P19 cells = experiment: P19 cell apoptosis upon withdrawal of serum; format: cell-based; settings: times more potent than EPO, on a weight basis; FIG. 6
Procedure: Alternatively, tissue protection afforded by peptides can be determined using an assay employing mouse P19 cells, which are neuronal-like and die via apoptosis upon withdrawal of serum. Tissue protection of peptide D (SEQ ID NO:30) was compared to that of EPO using P19 clone P19S1801A1 as previously published (Siren et al., 2001, PNAS 98:4044, hereby incorporated by reference in its entirety). Cells were maintained undifferentiated in DMEM supplemented with 2 mM Lglutamine; 100 units/ml penicillin G; […] streptomycin sulfate (GIBCO); 10% (vol/vol) FBS (HyClone), containing 1.2 g/liter NaHCO3 and 10 mM Hepes buffer, hereafter referred to as complete medium. Serum-free medium contained the same components as above with the deletion of serum and the addition of 5 mg/ml of insulin; […] of transferrin; 20 nM progesterone; […] putrescine; 30 nM Na2SeO3 (from Sigma). For the experiments, 50% confluent cells were pretreated overnight with EPO or vehicle, dissociated with trypsin, washed in serum-free medium, and plated in 25-cm^2 tissue culture flasks at a final density of 10^4 cells/cm^2 in serum-free medium alone or with added EPO. Cell viability and was determined by trypan blue exclusion and a hemacytometer.

Sequence: APPRLICDSRVLERYLLEAKEAE (Peptide A - consists of the N-terminal portion of Helix A corresponding to EPO amino acids 1-23) [EPO fragment, amino acids 1-23]
- tissue protective activity in the sciatic nerve injury model (in words) [1]: is tissue protective

Sequence: CSLNENIQEQLERALNSS (Peptide I - A chimera peptide linking the helix B exterior-presenting amino acids to the beta pleated sheet found within the AB loop of the EPO) [chimera: Peptide G + β-pleated sheet (33-39)]
- tissue protective activity in the sciatic nerve injury model (in words) [1]: is tissue protective

Sequence: GCAEHCSLNENITVPDTKVN (Peptide E - a portion of the A-B loop consisting of a small cysteine loop and a Beta-pleated sheet corresponding to EPO amino acids 28-47) [EPO fragment, amino acids 28-47]
- tissue protective activity in the sciatic nerve injury model (in words) [1]: is tissue protective
- tissue protective activity in the sciatic nerve injury model (in words) ([1]; listed as SEQ ID NO:31): exhibit tissue protective properties
- clinical score / neurological function in EAE [2]: significantly reduced both the time course and severity; also recorded: significantly improved neurological function

Sequence: NITTGCAEHCSLNE (Peptide B - consists of EPO amino acids 24-37) [EPO fragment, amino acids 24-37]
- increase in hemoglobin levels (hematocrit) [3]: Neither Peptide B nor Peptide C showed any increase in hematocrit
- tissue protective activity in the sciatic nerve injury model (in words) [1]: is not tissue protective

Sequence: NITVPDTKVNFYAWKRMEVG (Peptide C - loop AB and N-terminal portion of helix B corresponding to EPO amino acids 38-57) [EPO fragment, amino acids 38-57]
- potency relative to EPO in preventing apoptosis of p19 cells (mouse P19 cells): at least 10
- increase in hemoglobin levels (hematocrit) [3]: Neither Peptide B nor Peptide C showed any increase in hematocrit
- tissue protective activity in the sciatic nerve injury model (in words) [1]: exhibit tissue protective properties

Sequence: QEQLERALNSS [Peptide G, QEQLERALNSS]
- neutralizing antibody response against EPO [3]: no neutralizing antibody response was observed; also recorded: neither peptide elicits an antibody response

Sequence: QEQLERALNSSLRRYINMLTRTR (Peptide J - A chimera peptide of Peptide G linked to pancreatic polypeptide helix)
- tissue protective activity in the sciatic nerve injury model (in words) [1]: potent tissue protective activity

Sequence: RYLLEAKEAENITTGC [Peptide F, RYLLEAKEAENITTGC]
- neutralizing antibody response against EPO [3]: no neutralizing antibody response was observed; also recorded: neither peptide elicits an antibody response
